Reference: patent US20230114728A1 (Venatorx Pharmaceuticals, Inc., priority 2019, published 2023)
≈ marks a conversion by molar mass, not a printed value.

Legend:
P. aeruginosa PBP3 = target: T1, P. aeruginosa PBP3 (Pseudomonas aeruginosa, UniProt G3XD46); experiment: Bocillin-FL fluorescence polarization competition binding assay, P. aeruginosa PBP3; details: fluorescence polarization competition binding assay using Bocillin-FL
T1 construct: made in house
How it was run: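 Binding of boronic acid inhibitors to purified Pseudomonas aeruginosa (PA01) PBP3 was measured by fluorescence polarization competition with Bocillin-FL, a fluorescent penicillin V. Reactions of 80 μl contained 0.75 μM PBP3 and 0.1 μM Bocillin-FL in 50 mM Hepes (pH 8.0), 300 mM NaCl and 5% (v/v) glycerol, in black 384-well plates. FP (Excitation 490 nm, Emission 520 nm) was read for up to 60 minutes. EC50 is the concentration that halves PBP-bound Bocillin-FL.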

N. gonorrhoeae FA1090 = experiment: Liquid broth MIC in Fastidious broth; format: cell-based; details: Neisseria gonorrhoeae; N. gonorrhoeae strain FA1090; Fastidious broth; read-out: Minimum Inhibitory Concentration, N. gonorrhoeae FA1090
Description: (§1) Example V: In Vitro Antibacterial Assays for N. gonorrhoeae Strains
(§2) Additional antibacterial testing of the series was performed in 8 reference strains of N. gonorrhoeae (ATCC 49226, FA1090, WHO G, WHO L, WHO K, H041, WHO Z, and WHO Q). ATCC 49226, FA1090, WHO G, and WHO L produce wild type or wild-type like PBP2. WHO K, H041, WHO Z, and WHO Q produce mosaic PBP2. Liquid broth-based assays were used for antibacterial testing of PBP inhibitors in Neisseria gonorrhoeae. Briefly, cryo-preserved bacterial cultures of clinical strains were streaked for isolation on Chocolate Agar (72 g/L (2×) GC Agar Base (BD #228950) and 2% (2×) Hemoglobin was autoclaved at 121° C. for 20 minutes to sterilize. Once cooled to ˜50° C. the 2× GC Agar Base and 2× Hemoglobin solutions are combined and 1% IsoVitaleX Enrichment (BD #211876) was added to the solution). Strains were incubated at 36° C. and 5% CO2 to allow growth of colonies, 24 hours before inoculum preparation. 2-fold serial dilutions of test compounds were conducted in a 96 well plate with a final volume of 75 μL per well at 2-fold the final desired concentration in Fastidious broth (Remel #R07664). For preparation of assay inoculum, a direct suspension was prepared by aseptically swabbing all colonies from agar plates into culture tubes containing 2 mL of fresh sterile saline. After the dilution plates were set up, direct suspensions were then diluted in a cuvette containing sterile saline and the optical density was measured at 600 nm. Inocula were diluted such that 75 μL of this culture in Fastidious broth results in a starting bacterial concentration of 5×10^5 CFU/mL when added to the dilution plates. The plates were incubated for ˜24 hours at 36° C. and 5% CO2. The MIC was read visually as the lowest concentration well with <10% bacterial growth compared to wells of full growth.

N. gonorrhoeae WHO L = experiment: Liquid broth MIC in Fastidious broth; format: cell-based; details: Neisseria gonorrhoeae; N. gonorrhoeae strain WHO L; Fastidious broth; read-out: Minimum Inhibitory Concentration, N. gonorrhoeae WHO L
Description: as §1, §2

N. gonorrhoeae WHO K = experiment: Liquid broth MIC in Fastidious broth; format: cell-based; details: Neisseria gonorrhoeae, read-out: Minimum Inhibitory Concentration, N. gonorrhoeae WHO K
Description: as §1, §2

[1] = tested on: N. gonorrhoeae ATCC 49226; experiment: Liquid broth MIC in Fastidious broth; format: cell-based; details: Neisseria gonorrhoeae, ATCC49226; N. gonorrhoeae strain ATCC 49226; Fastidious broth; read-out: Minimum Inhibitory Concentration, N. gonorrhoeae ATCC 49226
Description: as §1, §2

N. gonorrhoeae WHO G = experiment: Liquid broth MIC in Fastidious broth; format: cell-based; details: Neisseria gonorrhoeae; N. gonorrhoeae strain WHO G; Fastidious broth; read-out: Minimum Inhibitory Concentration, N. gonorrhoeae WHO G
Description: as §1, §2

N. gonorrhoeae H041 = experiment: Liquid broth MIC in Fastidious broth; format: cell-based; details: Neisseria gonorrhoeae, H041, read-out: Minimum Inhibitory Concentration, N. gonorrhoeae H041
Description: as §1, §2

T1 sequence (G3XD46 whole entry): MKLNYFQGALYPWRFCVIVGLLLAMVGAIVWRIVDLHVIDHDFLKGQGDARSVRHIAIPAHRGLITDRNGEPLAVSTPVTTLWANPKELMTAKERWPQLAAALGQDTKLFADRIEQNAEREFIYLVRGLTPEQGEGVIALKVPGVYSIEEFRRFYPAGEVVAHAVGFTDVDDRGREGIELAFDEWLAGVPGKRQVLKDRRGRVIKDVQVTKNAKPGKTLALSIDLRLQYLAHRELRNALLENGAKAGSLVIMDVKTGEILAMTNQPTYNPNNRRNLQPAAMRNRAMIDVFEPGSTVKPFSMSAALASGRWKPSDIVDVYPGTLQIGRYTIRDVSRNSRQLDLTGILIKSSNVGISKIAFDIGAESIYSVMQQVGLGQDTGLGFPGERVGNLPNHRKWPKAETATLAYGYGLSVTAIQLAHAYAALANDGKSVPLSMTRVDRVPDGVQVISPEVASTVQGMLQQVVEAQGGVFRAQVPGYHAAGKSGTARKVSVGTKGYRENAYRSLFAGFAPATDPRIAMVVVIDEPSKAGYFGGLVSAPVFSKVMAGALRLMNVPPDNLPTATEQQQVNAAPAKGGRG

Structure (SMILES) | P. aeruginosa PBP3 Potency (P. aeruginosa PBP3) | MIC (N. gonorrhoeae FA1090) [µg/mL] | MIC (N. gonorrhoeae WHO L) [µg/mL] | MIC (N. gonorrhoeae WHO K) [µg/mL] | MIC [1] [µg/mL] | MIC (N. gonorrhoeae WHO G) [µg/mL] | MIC (N. gonorrhoeae H041) [µg/mL]
NCCN1CCN(C(=O)N[C@H](C(=O)N[C@H]2Cc3cccc(C(=O)O)c3OB2O)c2ccc(O)cc2Cl)C(=O)C1=O (single isomer, unassigned) [Example 85] | C (C represents a potency between 10 and 30 μM) | 4 to 8 (≈ 6.97 to 13.9 µM) | > 64 | > 64 | > 64 | > 64 | > 64
NCCN1CCN(C(=O)N[C@@H](C(=O)N[C@H]2Cc3cccc(C(=O)O)c3OB2O)c2ccc(O)cc2Cl)C(=O)C1=O (single isomer, unassigned) [Example 86] | D (D represents a potency <10 μM) | 1 to 2 (≈ 1.74 to 3.49 µM) | > 64 | > 64 | > 64 | 4 to 8 (≈ 6.97 to 13.9 µM) | > 64
NCCN1CCN(C(=O)N[C@H](C(=O)N[C@H]2Cc3cccc(C(=O)O)c3OB2O)c2ccc(O)cc2F)C(=O)C1=O (single isomer, unassigned) [Example 88] | C (C represents a potency between 10 and 30 μM) | 4 to 8 (≈ 7.18 to 14.4 µM) | > 64 | > 64 | > 64 | 16 to 32 (≈ 28.7 to 57.4 µM) | > 64
NCCN1CCN(C(=O)N[C@@H](C(=O)N[C@H]2Cc3cccc(C(=O)O)c3OB2O)c2ccc(O)cc2F)C(=O)C1=O (single isomer, unassigned) [Example 89] | D (D represents a potency <10 μM) | 1 to 2 (≈ 1.79 to 3.59 µM) | > 64 | > 64 | 16 to 32 (≈ 28.7 to 57.4 µM) | 4 to 8 (≈ 7.18 to 14.4 µM) | > 64
CCN1CCN(C(=O)N[C@@H](C(=O)N[C@H]2Cc3cccc(C(=O)O)c3OB2O)c2cc(Cl)c(O)cc2Cl)C(=O)C1=O (single isomer, unassigned) [Example 91] | D (D represents a potency <10 μM) | 0.25 to 0.5 (≈ 0.421 to 0.843 µM) | > 64 | 16 to 32 (≈ 27 to 53.9 µM) | 16 to 32 (≈ 27 to 53.9 µM) | 1 to 2 (≈ 1.69 to 3.37 µM) | 16 to 32 (≈ 27 to 53.9 µM)
CCN1CCN(C(=O)N[C@H](C(=O)N[C@H]2Cc3cccc(C(=O)O)c3OB2O)c2cc(Cl)c(O)cc2Cl)C(=O)C1=O (single isomer, unassigned) [Example 92] | B (B represents a potency between 30 μM and 500 μM inclusive) | 16 to 32 (≈ 27 to 53.9 µM) | > 64 | > 64 | > 64 | > 64 | > 64
O=C(O)c1ccc(C(NC(=O)c2ccc(O)c(O)c2Cl)C(=O)N[C@H]2Cc3cccc(C(=O)O)c3OB2O)cc1F (stereo partly drawn) [Example 7, (3R)-3-(2-(4-carboxy-3-fluorophenyl)-2-(2-chloro-3,4-dihydroxybenzamido)acetamido)-2-hydroxy-3,4-dihydro-2H-benzo[e][1,2]oxaborinine-8-carboxylic acid] | D (D represents a potency <10 μM) | 16 to 32 (≈ 27.9 to 55.9 µM) | > 64 | > 64 | > 64 | > 64 | > 64
O=C(NC(C(=O)N[C@H]1Cc2ccc(F)c(C(=O)O)c2OB1O)c1ncc(O)cc1F)c1ccc(O)c(O)c1Cl (stereo partly drawn) [Example 8, (3R)-3-(2-(2-chloro-3,4-dihydroxybenzamido)-2-(3-fluoro-5-hydroxypyridin-2-yl)acetamido)-7-fluoro-2-hydroxy-3,4-dihydro-2H-benzo[e][1,2]oxaborinine-8-carboxylic acid] | D (D represents a potency <10 μM) | 4 to 8 (≈ 7.1 to 14.2 µM) | > 64 | > 64 | > 64 | 16 to 32 (≈ 28.4 to 56.8 µM) | > 64
O=C(Nc1ccc(O)c(O)c1Cl)NC(C(=O)N[C@H]1Cc2ccc(F)c(C(=O)O)c2OB1O)c1ncc(O)cc1F (stereo partly drawn) [Example 9, (3R)-3-(2-(3-(2-chloro-3,4-dihydroxyphenyl)ureido)-2-(3-fluoro-5-hydroxypyridin-2-yl)acetamido)-7-fluoro-2-hydroxy-3,4-dihydro-2H-benzo[e][1,2]oxaborinine-8-carboxylic acid] | D (D represents a potency <10 μM) | 16 to 32 (≈ 27.6 to 55.3 µM) | > 64 | > 64 | > 64 | > 64 | > 64
O=C(NC(C(=O)N[C@H]1Cc2ccc(F)c(C(=O)O)c2OB1O)c1ncc(O)cc1F)c1c(F)cc(O)c(O)c1Cl (stereo partly drawn) [Example 10, (3R)-3-(2-(2-chloro-6-fluoro-3,4-dihydroxybenzamido)-2-(3-fluoro-5-hydroxypyridin-2-yl)acetamido)-7-fluoro-2-hydroxy-3,4-dihydro-2H-benzo[e][1,2]oxaborinine-8-carboxylic acid] | D (D represents a potency <10 μM) | 16 to 32 (≈ 27.5 to 55 µM) | > 64 | > 64 | > 64 | > 64 | > 64
CCN1CCN(C(=O)NC(C(=O)N[C@H]2Cc3ccc(F)c(C(=O)O)c3OB2O)c2ccc(C(=O)O)cc2)C(=O)C1=O (stereo partly drawn) [Example 15, (3R)-3-(2-(4-carboxyphenyl)-2-(4-ethyl-2,3-dioxopiperazine-1-carboxamido)acetamido)-7-fluoro-2-hydroxy-3,4-dihydro-2H-benzo[e][1,2]oxaborinine-8-carboxylic acid] | D (D represents a potency <10 μM) | 0.25 to 0.5 (≈ 0.438 to 0.877 µM) | > 64 | 4 to 8 (≈ 7.01 to 14 µM) | 4 to 8 (≈ 7.01 to 14 µM) | 4 to 8 (≈ 7.01 to 14 µM) | 4 to 8 (≈ 7.01 to 14 µM)
CCN1CCN(C(=O)NC(C(=O)N[C@H]2Cc3cccc(C(=O)O)c3OB2O)c2ccc(O)c(NC(C)=O)c2)C(=O)C1=O (stereo partly drawn) [Example 17, (3R)-3-(2-(3-acetamido-4-hydroxyphenyl)-2-(4-ethyl-2,3-dioxopiperazine-1-carboxamido)acetamido)-2-hydroxy-3,4-dihydro-2H-benzo[e][1,2]oxaborinine-8-carboxylic acid] | D (D represents a potency <10 μM) | 1 to 2 (≈ 1.72 to 3.44 µM) | > 64 | > 64 | > 64 | > 64 | > 64
CCN1CCN(C(=O)NC(C(=O)N[C@H]2Cc3ccc(F)c(C(=O)O)c3OB2O)c2nc(N)sc2F)C(=O)C1=O (stereo partly drawn) [Example 18, (3R)-3-(2-(2-amino-5-fluorothiazol-4-yl)-2-(4-ethyl-2,3-dioxopiperazine-1-carboxamido)acetamido)-7-fluoro-2-hydroxy-3,4-dihydro-2H-benzo[e][1,2]oxaborinine-8-carboxylic acid] | D (D represents a potency <10 μM) | 1 to 2 (≈ 1.77 to 3.53 µM) | 16 to 32 (≈ 28.3 to 56.5 µM) | 16 to 32 (≈ 28.3 to 56.5 µM) | 4 to 8 (≈ 7.06 to 14.1 µM) | 4 to 8 (≈ 7.06 to 14.1 µM) | 16 to 32 (≈ 28.3 to 56.5 µM)
CCN1CCN(C(=O)N[C@H](C(=O)N[C@H]2Cc3cccc(C(=O)O)c3OB2O)c2nc(Cl)c(C(=O)O)cc2F)C(=O)C1=O [Example 19, 6-((S)-2-(((R)-8-carboxy-2-hydroxy-3,4-dihydro-2H-benzo[e][1,2]oxaborinin-3-yl)amino)-1-(4-ethyl-2,3-dioxopiperazine-1-carboxamido)-2-oxoethyl)-2-chloro-5-fluoronicotinic acid] | D (D represents a potency <10 μM) | 1 to 2 (≈ 1.65 to 3.3 µM) | > 64 | > 64 | 16 to 32 (≈ 26.4 to 52.8 µM) | 4 to 8 (≈ 6.6 to 13.2 µM) | > 64
